In the supplement of paper PMC11061612:

Legend:
Assay in all cases: combination Emax (second highest fraction inhibited in the dose matrix, 72 h); higher = more inhibition; extreme values may be limits of the assay
[1] = test system: C3A (Hepatocellular Carcinoma)
Method in brief: (§1)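 Cell lines in DMEM/F12 or RPMI with 10% FBS were plated in 1536-well plates, held 24 hours at 37°C, 5% CO2, then given two-drug dose matrices for 72 hours (DMSO typically 0.2%). Viability was read by CellTiter-Glo 2.0 luminescence and scaled as inhibition from 0 (vehicle wells) to 1 (blank wells). Combination Emax is the second-highest inhibition in the matrix; Bliss excess is observed combination effect minus expected EA + EB − EA·EB, EA and EB being single-agent effects.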

[2] = test system: CFPAC-1 (Pancreatic Carcinoma)
Method in brief: as §1

[3] = test system: G-292-Clone-A141B1 (Osteosarcoma)
Method in brief: as §1

[4] = test system: HT-29 (Colorectal Carcinoma)
Method in brief: as §1

[5] = test system: IGR-1 (Melanoma)
Method in brief: as §1

[6] = test system: IHH-4 (Thyroid Gland Carcinoma)
Method in brief: as §1

[7] = test system: KARPAS-620 (Plasma Cell Myeloma)
Method in brief: as §1

[8] = test system: KATOIII (Gastric Carcinoma)
Method in brief: as §1

[9] = test system: MDA-MB-231 (Breast Carcinoma)
Method in brief: as §1

[10] = test system: NALM-6 (B-Lymphoblastic Leukemia)
Method in brief: as §1

[11] = test system: NCI-H1299 (Non-Small Cell Lung Carcinoma)
Method in brief: as §1

[12] = test system: NCI-H1694 (Small Cell Lung Carcinoma)
Method in brief: as §1

[13] = test system: NCI-H1793 (Lung Adenocarcinoma)
Method in brief: as §1

[14] = test system: NCI-H2369 (Mesothelioma)
Method in brief: as §1

[15] = test system: RH-1 (Ewing's Sarcoma)
Method in brief: as §1

[16] = test system: SN12C (Kidney Carcinoma)
Method in brief: as §1

[17] = test system: SNU-C5 (Colorectal Carcinoma)
Method in brief: as §1

[18] = test system: SW1088 (Low Grade Glioma)
Method in brief: as §1

[19] = test system: SW1783 (Low Grade Glioma)
Method in brief: as §1

[20] = test system: SW780 (Bladder Carcinoma)
Method in brief: as §1

| Compound | combination Emax [1] | combination Emax [2] | combination Emax [3] | combination Emax [4] | combination Emax [5] | combination Emax [6] | combination Emax [7] | combination Emax [8] | combination Emax [9] | combination Emax [10] | combination Emax [11] | combination Emax [12] | combination Emax [13] | combination Emax [14] | combination Emax [15] | combination Emax [16] | combination Emax [17] | combination Emax [18] | combination Emax [19] | combination Emax [20] |
| --- | --- | --- | --- | --- | --- | --- | --- | --- | --- | --- | --- | --- | --- | --- | --- | --- | --- | --- | --- | --- |
| CC1(C)CCC(CN2CCN(c3ccc(C(=O)NS(=O)(=O)c4ccc(NCC5CCOCC5)c([N+](=O)[O-])c4)c(Oc4cnc5[nH]ccc5c4)c3)CC2)=C(c2ccc(Cl)cc2)C1 [Venetoclax] + C1CN(CCC1(C(=O)N[C@@H](CCO)C2=CC=C(C=C2)Cl)N)C3=NC=NC4=C3C=CN4 [Capivasertib] (first compound max 1 µM, 7x7, partner max 3 µM) | 0.17 | 0.305 | 0.273 | 0.254 | 0.193 | 0.248 | 1 | 0.254 | 0.184 | 0.848 | 0.171 | 0.179 | 0.221 | 0.134 | 0.213 | 0.206 | 0.318 | 0.494 | 0.342 | 0.163 |
| CN(C)CCCOc1ccc(-c2ccc3ncc4c(c3c2)n(C2CCOCC2)c(=O)n4C)cn1 [AZD0156] + C[C@@H]1COCCN1C2=NC(=NC(=C2)C3(CC3)[S@](=N)(=O)C)C4=C5C=CNC5=NC=C4 [AZD6738] (first compound max 1 µM, 7x7, partner max 10 µM) | 0.584 | 0.434 | 0.263 | 0.823 | 0.523 | 0.907 | 0.644 | 0.519 | 0.736 | 0.903 | 0.746 | 0.711 | 0.455 | 0.187 | 0.938 | 0.114 | 0.807 | 0.57 | 0.257 | 0.138 |
| CN(CCO)CC[C@H](CSc1ccccc1)Nc1ccc(S(=O)(=O)NC(=O)c2ccc(N3CCC([C@@H](O)c4ccccc4-c4ccc(Cl)cc4)CC3)cc2)cc1S(=O)(=O)C(F)(F)F [AZD4320] + CN(C)CCCOc1ccc(-c2ccc3ncc4c(c3c2)n(C2CCOCC2)c(=O)n4C)cn1 [AZD0156] (first compound max 1 µM, 7x7, partner max 1 µM) | 0.248 | 0.115 | 0.647 | 0.169 | 0.342 | 0.224 | 1 | 0.0663 | 0.655 | 0.973 | 0.149 | 0.718 | 0.253 | 0.0933 | 0.359 | 0.169 | 0.225 | 0.164 | 0.52 | 0.521 |
| C=CCn1c(=O)c2cnc(Nc3ccc(N4CCN(C)CC4)cc3)nc2n1-c1cccc(C(C)(C)O)n1 [AZD1775] + C[C@@H]1COCCN1C2=NC(=NC(=C2)C3(CC3)[S@](=N)(=O)C)C4=C5C=CNC5=NC=C4 [AZD6738] (first compound max 1 µM, partner max 10 µM) | 0.567 | 0.536 | 0.354 | 0.858 | 0.538 | 0.886 | 0.753 | 0.507 | 0.84 | 0.971 | 0.889 | 0.883 | 0.548 | 0.336 | 1 | 0.408 | 0.794 | 0.684 | 0.41 | 0.246 |
| Cc1c2c(nn1C)CSCc1cc(n(C)n1)CSc1cc(c3ccccc3c1)OCCCc1c(C(=O)O)n(C)c3c-2c(Cl)ccc13 [AZD5991] + CCN(CCO)CCCOc1ccc2c(Nc3cc(CC(=O)Nc4cccc(F)c4)[nH]n3)ncnc2c1 [AZD2811] (first compound max 1 µM, 7x7, partner max 1 µM) | 0.32 | 0.256 | 0.276 | 0.383 | 0.338 | 0.404 | 1 | 0.116 | 0.321 | 0.655 | 0.406 | 0.985 | 0.2 | 0.176 | 0.956 | 0.387 | 0.288 | 0.494 | 0.246 | 0.213 |
| C[C@@H](c1ccc2nccn2c1)n1nnc2ncc(-c3cnn(C)c3)nc21 [Savolitinib] + Cc1c2c(nn1C)CSCc1cc(n(C)n1)CSc1cc(c3ccccc3c1)OCCCc1c(C(=O)O)n(C)c3c-2c(Cl)ccc13 [AZD5991] (first compound max 1 µM, 7x7, partner max 1 µM) | 0.195 | 0.115 | 0.138 | 0.142 | 0.223 | 0.0909 | 0.997 | 0.211 | 0.284 | 0.226 | 0.151 | 0.371 | 0.173 | 0.116 | 0.518 | 0.197 | 0.177 | 0.261 | 0.22 | 0.164 |
| NC1(C(=O)N[C@@H](CCO)c2ccc(Cl)cc2)CCN(c2ncnc3[nH]ccc23)CC1 [Capivasertib] + COc1nnc2ccc(N3CCC(c4ccc(OCCN5CCN(C)C(=O)[C@H]5C)cc4)CC3)nn12 [AZD5153] (first compound max 10 µM, 7x7, partner max 1 µM) | 0.478 | 0.531 | 0.573 | 0.753 | 0.406 | 0.636 | 0.897 | 0.201 | 0.703 | 0.945 | 0.669 | 0.523 | 0.37 | 0.268 | 0.699 | 0.152 | 0.665 | 0.638 | 0.473 | 0.226 |
| Cc1c2c(nn1C)CSCc1cc(n(C)n1)CSc1cc(c3ccccc3c1)OCCCc1c(C(=O)O)n(C)c3c-2c(Cl)ccc13 [AZD5991] + CC1(C)CCC(CN2CCN(c3ccc(C(=O)NS(=O)(=O)c4ccc(NCC5CCOCC5)c([N+](=O)[O-])c4)c(Oc4cnc5[nH]ccc5c4)c3)CC2)=C(c2ccc(Cl)cc2)C1 [Venetoclax] (first compound max 1 µM, 7x7, partner max 1 µM) | 0.181 | 0.143 | 0.184 | 0.189 | 0.969 | 0.253 | 1 | 0.101 | 0.216 | 0.949 | 0.258 | 0.988 | 0.174 | 0.147 | 0.766 | 0.21 | 0.204 | 0.248 | 0.444 | 0.386 |
| COc1cccc(OCCCN)c1-c1cc(Nc2cnc(C#N)cn2)n[nH]1 [Prexasertib] + CN(C)CCCOc1ccc(-c2ccc3ncc4c(c3c2)n(C2CCOCC2)c(=O)n4C)cn1 [AZD0156] (first compound max 1 µM, 7x7, partner max 1 µM) | 0.613 | 0.618 | 0.33 | 0.858 | 0.466 | 0.901 | 0.896 | 0.522 | 0.743 | 0.923 | 0.747 | 0.794 | 0.468 | 0.29 | 1 | 0.342 | 0.889 | 0.797 | 0.445 | 0.136 |
| Cn1cnc2c(F)c(Nc3ccc(Br)cc3Cl)c(C(=O)NOCCO)cc21 [Selumetinib] + C[C@@H]1COCCN1C2=NC(=NC(=C2)C3(CC3)[S@](=N)(=O)C)C4=C5C=CNC5=NC=C4 [AZD6738] (first compound max 10 µM, 7x7, partner max 10 µM) | 0.759 | 0.667 | 0.141 | 0.862 | 0.707 | 0.646 | 0.935 | 0.415 | 0.718 | 0.972 | 0.543 | 0.728 | 0.524 | 0.187 | 0.899 | 0.192 | 0.789 | 0.65 | 0.362 | 0.381 |
| NC1(C(=O)N[C@@H](CCO)c2ccc(Cl)cc2)CCN(c2ncnc3[nH]ccc23)CC1 [Capivasertib] + Cn1cnc2c(F)c(Nc3ccc(Br)cc3Cl)c(C(=O)NOCCO)cc21 [Selumetinib] (first compound max 10 µM, 7x7, partner max 10 µM) | 0.603 | 0.491 | 0.371 | 0.783 | 0.915 | 0.607 | 0.96 | 0.431 | 0.751 | 0.697 | 0.615 | 0.204 | 0.39 | 0.231 | 0.317 | 0.352 | 0.656 | 0.618 | 0.415 | 0.421 |
| CN(CCO)CC[C@H](CSc1ccccc1)Nc1ccc(S(=O)(=O)NC(=O)c2ccc(N3CCC([C@@H](O)c4ccccc4-c4ccc(Cl)cc4)CC3)cc2)cc1S(=O)(=O)C(F)(F)F [AZD4320] + C1CN(CCC1(C(=O)N[C@@H](CCO)C2=CC=C(C=C2)Cl)N)C3=NC=NC4=C3C=CN4 [Capivasertib] (first compound max 1 µM, 7x7, partner max 3 µM) | 0.292 | 0.0708 | 0.754 | 0.196 | 0.256 | 0.171 | 1 | 0.128 | 0.376 | 0.983 | 0.129 | 0.763 | 0.195 | 0.859 | 0.394 | 0.0749 | 0.3 | 0.423 | 0.44 | 0.578 |
